Values of other authors as cited in patent US20030143247A1, “Antiviral compositions and methods for identification and use” (priority 2002, published 2003).

Experiments:
[1] = system: HIV viral RNA region within the Rev-binding site; details: Zapp et al., Cell 74, 1993
[2] = human, in vivo
HCV = details: various clinical trials

In the case of NC[C@@H]1O[C@H](O[C@H]2[C@@H](O)[C@H](O[C@@H]3[C@@H](O)[C@H](N)C[C@H](N)[C@H]3O[C@H]3O[C@H](CN)[C@@H](O)[C@H](O)[C@H]3N)O[C@@H]2CO)[C@H](N)[C@@H](O)[C@@H]1O [neomycin B], the “effect on Rev protein binding to HIV viral RNA” value [1] is listed as “blocks Rev protein binding”.

In the case of NC(=O)c1ncn([C@@H]2O[C@H](CO)[C@@H](O)[C@H]2O)n1 [ribavirin, 1-β-D-ribo-furanosyl-1,2,4-trizole-3-carboxamide], the side effect [2] is listed as “can cause hemolytic anemia”.

In the case of IFN-α, the “patients who initially responded to the therapy” value (HCV; patients treated with IFN-α) is given as “approximately 40%” and the “initial responders who relapsed after the treatment ended” value (HCV; share of the initial responders) is given as 70%.
